The source made the active and inactive calls. The calls are words filed in the database; no cut-off is given here.
How the values were obtained:
HepG2 [1] = assay: Inhibition of TNF-alpha-induced NF-kappaB transactivation expressed in human HepG2 cells at 10 uM preincubated 1 hr before TNFalpha challenge measured after 1 hr by luciferase reporter gene assay; type: cell-based
HepG2 [2] = assay: Inhibition of TNF-alpha-induced iNOS mRNA expression in human HepG2 cells expressing NF-kappaB preincubated 1 hr before TNFalpha challenge measured after 6 hrs by RT-PCR analysis; type: functional, cell-based
HepG2 [3] = assay: Inhibition of TNF-alpha-induced COX2 mRNA expression in human HepG2 cells expressing NF-kappaB preincubated 1 hr before TNFalpha challenge measured after 6 hrs by RT-PCR analysis; type: functional, cell-based
HepG2 [4] = assay: Cytotoxicity against human HepG2 cells up to 20 uM after 24 hrs by MTS assay; type: cell-based; settings: hepg2, 24 h
HepG2 [5] = assay: Inhibition of TNF-alpha-induced NF-kappaB transactivation expressed in human HepG2 cells at 20 uM preincubated 1 hr before TNFalpha challenge measured after 1 hr by luciferase reporter gene assay; type: cell-based
HepG2 [6] = assay: Inhibition of TNF-alpha-induced NF-kappaB transactivation expressed in human HepG2 cells at 0.1 to 20 uM preincubated 1 hr before TNFalpha challenge measured after 1 hr by luciferase reporter gene assay; type: cell-based

Compound	inhibition (HepG2 [1]) [%]	inhibition (HepG2 [2])	inhibition (HepG2 [3])	Activity (HepG2 [4])	inhibition (HepG2 [5]) [%]	inhibition (HepG2 [6])
COC(=O)[C@@H](Cc1ccc(O)c(O)c1)OC(=O)/C=C/c1ccc(OC)c(O)c1	28.7	Dose-dependent effect	Dose-dependent effect	Non-toxic	45.4	–
O=C(OCc1ccccc1)c1ccc(O)c(O[C@@H]2O[C@H](CO)[C@@H](O)[C@H](O)[C@H]2O)c1	–	–	–	Non-toxic	–	Active
COc1cc(/C=C/C(=O)O[C@H](Cc2ccc(O)c(O)c2)C(=O)O)ccc1O	–	–	–	Non-toxic	–	Active
CCOC(=O)[C@@H](Cc1ccc(O)c(O)c1)OC(=O)/C=C/c1ccc(O)c(O)c1 [ETHYL ROSMARINATE]	–	Dose-dependent effect	Dose-dependent effect	Non-toxic	57	–
COC(=O)[C@@H](Cc1ccc(O)c(O)c1)OC(=O)/C=C/c1ccc(O)c(O)c1 [METHYL ROSMARINATE]	–	Dose-dependent effect	Dose-dependent effect	Non-toxic	44.3	–
O=C(/C=C/c1ccc(O)c(O)c1)O[C@H](Cc1ccc(O)c(O)c1)C(=O)O [ROSMARINIC ACID]	–	–	–	Non-toxic	22.7	–

From ChEMBL document CHEMBL1777696, “Anti-inflammatory activity of constituents from Glechoma hederacea var. longituba” (Bioorg Med Chem Lett, 2011)
